These results are taken from patent US4070245A, “Substrate for the quantitative determination of proteolytic enzymes” (Pentapharm A.G., priority 1975, dated 1978).

In data set [1] the target is T1, human thrombin (Homo sapiens, UniProt P00734).
T1 construct: 0.56 NIH/ml of human thrombin
Put plainly: Enzymatic release of split product NH2-R2 from chromogenic/fluorogenic substrate by human thrombin. In kind it is biochemical. To be noted: in words, from Table 1. As to the method:
The degree of the enzymatic hydrolysis of the substrate, which is proportional to the quantity of p-Nitroaniline formed, can be easily determined by spectrophotometric measurement at 405 nm. […] The conditions are practically the same for the other substrates carrying a p-nitroanilino group as a chromogenic group. The spectrophotometric measurement was therefore, carried out in all cases at 405 nm.
The mixture was pre-incubated for 2 minutes at 37° C. […] The increase in the absorption was measured spectrophotometrically at 405 nm and continuously followed by means of a recording device. The measuring results listed in Tables 1 and 2 were all obtained under the test conditions defined above. The quantity of the formed split product NH2 --R^2 is a measure for the susceptibility of the substrate to the enzymes. […] For determining the quantity (nanomole) of p-napthylamine and 4-methoxy-β-naphthylamine (substrates XII to XV, XVIII and XIX), respectively, formed per minute the samples were irradiated in a fluorescence photometer with light having a wave length of 350 nm. The quantity of the formed split product was determined by measuring the intensity of the light emitted at 420 nm.

For data set [2], the target named is T1, human thrombin. Put plainly: Km and vmax from Lineweaver-Burk diagram, human thrombin. In kind it is biochemical. To be noted: ionic strength 0.15, pH 8.4, 37° C; for Km: tris-imidazole buffer, graphically from Lineweaver-Burk diagram; for vmax: value marked NIH. As to the method: (§1) As is evident from equation (2) constants Km and k3 determine the activity of the enzyme substrate for a given enzyme. For determining these constants the following procedure is followed:
(§2) The enzyme and the substrate are mixed in a buffer solution, and the reaction is followed spectrophotometrically for 2 to 30 minutes. The concentration of substrate [S] is varied, whereas the enzyme concentration [E] is kept constant. If the extinction (OD) (= optical density) is plotted in a co-ordinate system as a function of time, a curve is obtained the tangent of which (difference in extinction per minute, Δ OD/minute, from which the quantity in μmoles of pNA/min (v) can be calculated) at time zero corresponds to the ideal course of the hydrolysis. By means of this tangent the initial rate of the hydrolysis can be determined.
Km and vmax were determined for the enzymes by means of the LineweaverBurk equation (the Lineweaver-Burk diagram is shown in FIG. 7 of the drawings attached to the specification). […] According to the same principle Km and vmax were determined for the other enzymes. All determinations were carried out in trisimidazole buffer at an ionic strength of 0.15 and a pH of 8.4 at 37° C.

Another data set deals with T2, human plasmin (Homo sapiens, UniProt P00747).
T2 construct: 0.4 CU/ml of human plasmin
Put plainly: Km and vmax from Lineweaver-Burk diagram, human plasmin. It counts as biochemical. To be noted: value marked CU, ionic strength 0.15, pH 8.4, 37° C. As to the method: as §1, §2
(§3) If 1/v is plotted against 1/[S], a Lineweaver-Burk diagram (cf. "Kurzes Lehrbuch der Biochemie" by P. KARSON, Georg Thieme-Verlag, Stuttgart, 1967., p. 70) is obtained from which vmax and Km can be determined graphically. [formula] were determined with N^α-Cbo-Gly-Pro-Arg-pNA.HCl (substrate according to Example 1) for human thrombin, human plasmin and bovine trypsin. Km and vmax were determined for the enzymes by means of the LineweaverBurk equation (the Lineweaver-Burk diagram is shown in FIG. 7 of the drawings attached to the specification). […]

For another data set, the target named is T3, bovine trypsin (Bos taurus, UniProt P00760).
T3 construct: 1.8 NF/ml of bovine trypsin
T3 sequence (P00760 24-246): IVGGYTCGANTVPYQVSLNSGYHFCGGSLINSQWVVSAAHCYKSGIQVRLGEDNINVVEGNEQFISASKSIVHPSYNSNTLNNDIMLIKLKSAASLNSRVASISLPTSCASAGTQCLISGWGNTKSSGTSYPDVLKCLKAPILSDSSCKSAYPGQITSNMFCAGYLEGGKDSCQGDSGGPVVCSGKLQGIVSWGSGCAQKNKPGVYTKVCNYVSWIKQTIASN
As to the kind of experiment: Km and vmax from Lineweaver-Burk diagram, bovine trypsin. It counts as biochemical. To be noted: value marked NF, ionic strength 0.15, pH 8.4, 37° C. The procedure: as §1, §2, §3

A further data set deals with T4, human ecarin-thrombin (Homo sapiens, UniProt P00734).
T4 construct: 0.28 NIH/ml of human ecarin-thrombin
As to the kind of experiment: Enzymatic release of p-nitroaniline from substrate by human ecarin-thrombin. The note with it: substrate concentration 10^-4 M; pH 8.4, ionic strength 0.15, 37° C. It counts as biochemical.

Another data set has as its target human thrombin coagulase (Homo sapiens, UniProt P00734). Put plainly: Enzymatic release of p-nitroaniline from substrate by human thrombin coagulase (staphylo-thrombin). In kind it is biochemical. To be noted: substrate concentration 10^-4 M; pH 8.4, ionic strength 0.15, 37° C.
Data set [3] deals with batroxobin (thrombin-like enzyme from venom of Bothrops moojeni) (Bothrops atrox, UniProt P04971). In kind it is biochemical. The note with it: pH 8.4.
A further data set is described as follows: Solubility in water. It counts as physicochemical. The note with it: for solubility: water.
Substrate in data set [4]: Cc1ccc(S(=O)(=O)NCC(=O)N2CCC[C@H]2C(=O)N[C@@H](CCCNC(=N)N)C(=O)Nc2ccc([N+](=O)[O-])cc2)cc1
Put plainly: Km and vmax from Lineweaver-Burk diagram, human plasmin. In kind it is biochemical. To be noted: other: human plasmin, tris-imidazole buffer, ionic strength 0.15, pH 8.4, 37° C. The procedure:
as §1, §2, §3

Substrate in data set [5]: N=C(N)NCCC[C@H](NC(=O)[C@@H]1CCCN1C(=O)CNC(=O)OCc1ccccc1)C(=O)Nc1ccc([N+](=O)[O-])cc1
The description is as above. In kind it is biochemical. The note with it: other: human plasmin, tris-imidazole buffer, ionic strength 0.15, pH 8.4, 37° C. The procedure:
as §1, §2, §3

Structures can show the parent of a compound that is named as a salt. Where a SMILES comes first, the peptide text is derived from it. The star is where a group is joined. pNA = O=[N+]([O-])c1ccc(N*)cc1; Tos = Cc1ccc(S(=O)(=O)*)cc1; Cbz = O=C(OCc1ccccc1)*; Bz = O=C(c1ccccc1)* A value given as a limit tells only on which side of the number the result lay.

Chain of batroxobin (thrombin-like enzyme from venom of Bothrops moojeni) (P04971 25-255 limits assumed): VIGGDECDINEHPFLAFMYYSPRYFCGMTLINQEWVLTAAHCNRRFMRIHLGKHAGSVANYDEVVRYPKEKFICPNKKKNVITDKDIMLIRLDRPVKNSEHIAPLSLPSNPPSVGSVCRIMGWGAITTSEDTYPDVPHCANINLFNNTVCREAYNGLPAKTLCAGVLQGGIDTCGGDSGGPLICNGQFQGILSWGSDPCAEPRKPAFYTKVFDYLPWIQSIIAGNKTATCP

By Km is commonly meant the concentration of substrate that gives half-maximal velocity. For the molecule `Cc1ccc(S(=O)(=O)NCC(=O)N2CCC[C@H]2C(=O)N[C@@H](CCCNC(=N)N)C(=O)Nc2ccc([N+](=O)[O-])cc2)cc1` [Substrate VII, n^α -tos-Gly-Pro-Arg-pNA.HCl] (Tos-Gly-Pro-Arg-pNA), on human thrombin [1], the “susceptibility to human thrombin compared with N^α -Bz-Phe-Val-Arg-pNA.HCl” value is given as “much higher”. For the same molecule, the Km on human thrombin [2] came out at 17 µM. Further, the figures for the vmax at human thrombin [2], on human plasmin and at bovine trypsin were 0.0757 µmol/L, 0.618 µmol/L and 0.0297 µmol/L, respectively.

One may read the solubility as the concentration that dissolves in the medium under given conditions. A lower solubility goes with little dissolved substance. `N=C(N)NCCC[C@H](NC(=O)[C@@H]1CCCN1C(=O)CNC(=O)OCc1ccccc1)C(=O)Nc1ccc([N+](=O)[O-])cc1` [Substrate I, N^α -Cbo-Gly-Pro-Arg-pNA.HCl] (Cbz-Gly-Pro-Arg-pNA): the “susceptibility to human thrombin compared with N^α -Bz-Phe-Val-Arg-pNA.HCl” value on human thrombin [1] is “much higher”. On human ecarin-thrombin, the “Quantity of p-nitroaniline enzymatically split off from the substrate in 1 minute by the quantity of human ecarin-thrombin corresponding to 1 NIH” value is 246.4 nmol. The “Quantity of p-nitroaniline enzymatically split off from the substrate in 1 minute by the quantity of human thrombin coagulase corresponding to 1 NIH” value on human thrombin coagulase worked out at 575 nmol. Besides, in [3], the “Quantity of p-nitroaniline enzymatically split off from the substrate in 1 minute by the quantity of batroxobin corresponding to 1 NIH” value was found to be 15.81 nmol. Besides, at human thrombin [2], the Km turned out to be 57.1 µM. Besides, the vmax on human thrombin [2] worked out at 0.0534 µmol/L; on human plasmin, 0.673 µmol/L; on bovine trypsin, 0.0427 µmol/L. Besides, in the data set “Solubility in water” (ratio to prior art thrombin substrate), the “solubility in water relative to Bz-Phe-Val-Arg-pNA.HCl” value was 4 times. In addition, in the data set “Solubility in water”, the solubility is above 4000 µg/mL.

Consider `CC(C)COC(=O)NCC(=O)N1CCC[C@H]1C(=O)N[C@@H](CCCNC(=N)N)C(=O)Nc1ccc([N+](=O)[O-])cc1` [Substrate XI, n^α -isobutyloxycarbonyl-Gly-Pro-Arg-p-Na.HCl], for which the “susceptibility to human thrombin compared with N^α -Bz-Phe-Val-Arg-pNA.HCl” value at human thrombin [1] is “much higher”.

On to `CC(C)[C@H](NC(=O)[C@H](Cc1ccccc1)NC(=O)c1ccccc1)C(=O)N[C@@H](CCCNC(=N)N)C(=O)Nc1ccc([N+](=O)[O-])cc1` [N^α -Bz-Phe-Val-Arg-pNA . HCl, N^α -Bz-Phe-Val-Arg-pNA.HCl, reference compound] (Bz-Phe-Val-Arg-pNA), for which the “Quantity of p-nitroaniline enzymatically split off from the substrate in 1 minute by the quantity of human ecarin-thrombin corresponding to 1 NIH” value at human ecarin-thrombin came to 30.7 nmol. Also, the “Quantity of p-nitroaniline enzymatically split off from the substrate in 1 minute by the quantity of human thrombin coagulase corresponding to 1 NIH” value on human thrombin coagulase was 102 nmol. Moreover, in data set [3], the “Quantity of p-nitroaniline enzymatically split off from the substrate in 1 minute by the quantity of batroxobin corresponding to 1 NIH” value stood at 3.26 nmol. This molecule also yielded a solubility in the data set “Solubility in water” of around 1000 µg/mL.

For the molecule `N=C(N)NCCC[C@H](NC(=O)[C@@H]1CCCN1C(=O)CNS(=O)(=O)c1ccccc1)C(=O)Nc1ccc([N+](=O)[O-])cc1` [Substrate VIII, n^α -benzenesulfonyl-Gly-Pro-Arg-pNA.NCl], the “susceptibility to human thrombin compared with N^α -Bz-Phe-Val-Arg-pNA.HCl” value on human thrombin [1] is given as “much higher”.

B1: human plasmin (Homo sapiens) (protein)
chain 1: VVGGCVAHPHSWPWQVSLRTRFGMHFCGGTLISPEWVLTAAHCLEKSPRPSSYKVILGAHQEVNLEPHVQEIEVSRLFLEPTRKDIALLKLSSPAVITDKVIPACLPSPNYVVADRTECFITGWGETQGTFGAGLLKEAQLPVIENKVCNRYEFLNGRVQSTELCAGHLAGGTDSCQGDSGGPLVCFEKDKYILQGVTSWGLGCARPNKPGVYVRVSRFVTWIEGVMRNN
chain 2: KVYLSECKTGNGKNYRGTMSKTKNGITCQKWSSTSPHRPRFSPATHPSEGLEENYCRNPDNDPQGPWCYTTDPEKRYDYCDILECEEECMHCSGENYDGKISKTMSGLECQAWDSQSPHAHGYIPSKFPNKNLKKNYCRNPDRELRPWCFTTDPNKRWELCDIPRCTTPPPSSGPTYQCLKGTGENYRGNVAVTVSGHTCQHWSAQTPHTHNRTPENFPCKNLDENYCRNPDGKRAPWCHTTNSQVRWEYCKIPSCDSSPVSTEQLAPTAPPELTPVVQDCYHGDGQSYRGTSSTTTTGKKCQSWSSMTPHRHQKTPENYPNAGLTMNYCRNPDADKGPWCFTTDPSVRWEYCNLKKCSGTEASVVAPPPVVLLPDVETPSEEDCMFGNGKGYRGKRATTVTGTPCQDWAAQEPHRHSIFTPETNPRAGLEKNYCRNPDGDVGGPWCYTTNPRKLYDYCDVPQCAAPSFDCGKPQVEPKKCPGR
notes: 0.4 CU/ml of human plasmin
For the molecule B1, the Km turned out to be 323 µM in data set [4] and 357 µM in data set [5].
